Source: ChEMBL document CHEMBL4680149, “Biological evaluation and chemoproteomics reveal potential antibacterial targets of a cajaninstilbene-acid analogue” (Eur J Med Chem, 2020)
≈ marks a conversion by molar mass, not a printed value. Calls of active or inactive are those of the source. No cut-off for these calls is given here.

Tests used:
RAW264.7 = assay: Cytotoxicity against mouse RAW264.7 cells assessed as reduction in cell viability incubated for 48 hrs by MTT assay; assay type: cell-based; settings: RAW264.7, 48 h
Staphylococcus aureus [1] = assay: Antibacterial activity against methicillin resistant Staphylococcus aureus ATCC 43300 persisters assessed as eradication of colony formation at 2X MIC incubated for 4 hrs by colony counting method; assay type: functional, organism-based
Staphylococcus aureus [2] = assay: Bacteriostatic activity against Staphylococcus aureus ATCC 25923 assessed as reduction in bacterial growth at 4 ug/ml incubated for 16 hrs by Kirby-Bauer test method; assay type: functional, organism-based; settings: dose 4.0 µg/ml
Staphylococcus aureus [3] = assay: Antibacterial activity against Staphylococcus aureus ATCC 25923 assessed as reduction in bacterial growth incubated for 16 hrs by broth microdilution method; assay type: functional
Staphylococcus aureus [4] = assay: Binding affinity to His-tagged recombinant Staphylococcus aureus PgsA expressed in Escherichia coli Rosetta DE3 at 5 uM incubated for 1 hr in presence of (E)-6-(2-fluorostyryl)-2,4-dihydroxy-3-(3-methylbut-2-enyl)benzoic acid followed by UV irradiation for 20 mins by in-gel fluorescence scanning analysis; settings: time 80.0 min
Staphylococcus aureus [5] = assay: Binding affinity to rpsH in Staphylococcus aureus ATCC 25923 assessed as protein labeling at 5 uM incubated for 1 hr followed by UV irradiation for 20 mins by pull down based in-gel fluorescence scanning analysis; settings: time 80.0 min
Staphylococcus aureus [6] = assay: Binding affinity to CshA in Staphylococcus aureus ATCC 25923 assessed as protein labeling at 5 uM incubated for 1 hr followed by UV irradiation for 20 mins by pull down based in-gel fluorescence scanning analysis; settings: time 80.0 min
Staphylococcus aureus [7] = assay: Binding affinity to HsIU/ClpY in Staphylococcus aureus ATCC 25923 assessed as protein labeling at 5 uM incubated for 1 hr followed by UV irradiation for 20 mins by pull down based in-gel fluorescence scanning analysis; settings: time 80.0 min
Staphylococcus aureus [8] = assay: Binding affinity to modA in Staphylococcus aureus ATCC 25923 assessed as protein labeling at 5 uM incubated for 1 hr followed by UV irradiation for 20 mins by pull down based in-gel fluorescence scanning analysis; settings: time 80.0 min
Staphylococcus aureus [9] = assay: Binding affinity to moaB in Staphylococcus aureus ATCC 25923 assessed as protein labeling at 5 uM incubated for 1 hr followed by UV irradiation for 20 mins by pull down based in-gel fluorescence scanning analysis; settings: time 80.0 min
Staphylococcus aureus [10] = assay: Binding affinity to YidC in Staphylococcus aureus ATCC 25923 assessed as protein labeling at 5 uM incubated for 1 hr followed by UV irradiation for 20 mins by pull down based in-gel fluorescence scanning analysis; settings: time 80.0 min
Staphylococcus aureus [11] = assay: Binding affinity to PgsA in Staphylococcus aureus ATCC 25923 assessed as protein labeling at 5 uM incubated for 1 hr followed by UV irradiation for 20 mins by pull down based in-gel fluorescence scanning analysis; settings: time 80.0 min
Staphylococcus aureus [12] = assay: Binding affinity to rpsH in methicillin resistant Staphylococcus aureus ATCC 43300 assessed as protein labeling at 5 uM incubated for 1 hr followed by UV irradiation for 20 mins by pull down based in-gel fluorescence scanning analysis; settings: time 80.0 min
Staphylococcus aureus [13] = assay: Binding affinity to CshA in methicillin resistant Staphylococcus aureus ATCC 43300 assessed as protein labeling at 5 uM incubated for 1 hr followed by UV irradiation for 20 mins by pull down based in-gel fluorescence scanning analysis; settings: time 80.0 min
Staphylococcus aureus [14] = assay: Binding affinity to HsIU/ClpY in methicillin resistant Staphylococcus aureus ATCC 43300 assessed as protein labeling at 5 uM incubated for 1 hr followed by UV irradiation for 20 mins by pull down based in-gel fluorescence scanning analysis; settings: time 80.0 min
Staphylococcus aureus [15] = assay: Binding affinity to modA in methicillin resistant Staphylococcus aureus ATCC 43300 assessed as protein labeling at 5 uM incubated for 1 hr followed by UV irradiation for 20 mins by pull down based in-gel fluorescence scanning analysis; settings: time 80.0 min
Staphylococcus aureus [16] = assay: Binding affinity to moaB in methicillin resistant Staphylococcus aureus ATCC 43300 assessed as protein labeling at 5 uM incubated for 1 hr followed by UV irradiation for 20 mins by pull down based in-gel fluorescence scanning analysis; settings: time 80.0 min
Staphylococcus aureus [17] = assay: Binding affinity to YidC in methicillin resistant Staphylococcus aureus ATCC 43300 assessed as protein labeling at 5 uM incubated for 1 hr followed by UV irradiation for 20 mins by pull down based in-gel fluorescence scanning analysis; settings: time 80.0 min
Staphylococcus aureus [18] = assay: Binding affinity to PgsA in methicillin resistant Staphylococcus aureus ATCC 43300 assessed as protein labeling at 5 uM incubated for 1 hr followed by UV irradiation for 20 mins by pull down based in-gel fluorescence scanning analysis; settings: time 80.0 min
Staphylococcus aureus [19] = assay: Binding affinity to rpsH in Staphylococcus aureus ATCC 25923 assessed as protein labeling at 5 uM incubated for 1 hr in presence of (E)-6-(2-fluorostyryl)-2,4-dihydroxy-3-(3-methylbut-2-enyl)benzoic acid followed by UV irradiation for 20 mins by pull down based in-gel fluorescence scanning analysis; settings: time 80.0 min
Staphylococcus aureus [20] = assay: Binding affinity to CshA in Staphylococcus aureus ATCC 25923 assessed as protein labeling at 5 uM incubated for 1 hr in presence of (E)-6-(2-fluorostyryl)-2,4-dihydroxy-3-(3-methylbut-2-enyl)benzoic acid followed by UV irradiation for 20 mins by pull down based in-gel fluorescence scanning analysis; settings: time 80.0 min
Staphylococcus aureus [21] = assay: Binding affinity to HsIU/ClpY in Staphylococcus aureus ATCC 25923 assessed as protein labeling at 5 uM incubated for 1 hr in presence of (E)-6-(2-fluorostyryl)-2,4-dihydroxy-3-(3-methylbut-2-enyl)benzoic acid followed by UV irradiation for 20 mins by pull down based in-gel fluorescence scanning analysis; settings: time 80.0 min
Staphylococcus aureus [22] = assay: Binding affinity to modA in Staphylococcus aureus ATCC 25923 assessed as protein labeling at 5 uM incubated for 1 hr in presence of (E)-6-(2-fluorostyryl)-2,4-dihydroxy-3-(3-methylbut-2-enyl)benzoic acid followed by UV irradiation for 20 mins by pull down based in-gel fluorescence scanning analysis; settings: time 80.0 min
Staphylococcus aureus [23] = assay: Binding affinity to moaB in Staphylococcus aureus ATCC 25923 assessed as protein labeling at 5 uM incubated for 1 hr in presence of (E)-6-(2-fluorostyryl)-2,4-dihydroxy-3-(3-methylbut-2-enyl)benzoic acid followed by UV irradiation for 20 mins by pull down based in-gel fluorescence scanning analysis; settings: time 80.0 min
Staphylococcus aureus [24] = assay: Binding affinity to YidC in Staphylococcus aureus ATCC 25923 assessed as protein labeling at 5 uM incubated for 1 hr in presence of (E)-6-(2-fluorostyryl)-2,4-dihydroxy-3-(3-methylbut-2-enyl)benzoic acid followed by UV irradiation for 20 mins by pull down based in-gel fluorescence scanning analysis; settings: time 80.0 min
Staphylococcus aureus [25] = assay: Binding affinity to PgsA in Staphylococcus aureus ATCC 25923 assessed as protein labeling at 5 uM incubated for 1 hr in presence of (E)-6-(2-fluorostyryl)-2,4-dihydroxy-3-(3-methylbut-2-enyl)benzoic acid followed by UV irradiation for 20 mins by pull down based in-gel fluorescence scanning analysis; settings: time 80.0 min
Staphylococcus aureus [26] = assay: Binding affinity to rpsH in methicillin resistant Staphylococcus aureus ATCC 43300 assessed as protein labeling at 5 uM incubated for 1 hr in presence of (E)-6-(2-fluorostyryl)-2,4-dihydroxy-3-(3-methylbut-2-enyl)benzoic acid followed by UV irradiation for 20 mins by pull down based in-gel fluorescence scanning analysis; settings: time 80.0 min
Staphylococcus aureus [27] = assay: Binding affinity to CshA in methicillin resistant Staphylococcus aureus ATCC 43300 assessed as protein labeling at 5 uM incubated for 1 hr in presence of (E)-6-(2-fluorostyryl)-2,4-dihydroxy-3-(3-methylbut-2-enyl)benzoic acid followed by UV irradiation for 20 mins by pull down based in-gel fluorescence scanning analysis; settings: time 80.0 min
Staphylococcus aureus [28] = assay: Binding affinity to HsIU/ClpY in methicillin resistant Staphylococcus aureus ATCC 43300 assessed as protein labeling at 5 uM incubated for 1 hr in presence of (E)-6-(2-fluorostyryl)-2,4-dihydroxy-3-(3-methylbut-2-enyl)benzoic acid followed by UV irradiation for 20 mins by pull down based in-gel fluorescence scanning analysis; settings: time 80.0 min
Staphylococcus aureus [29] = assay: Binding affinity to modA in methicillin resistant Staphylococcus aureus ATCC 43300 assessed as protein labeling at 5 uM incubated for 1 hr in presence of (E)-6-(2-fluorostyryl)-2,4-dihydroxy-3-(3-methylbut-2-enyl)benzoic acid followed by UV irradiation for 20 mins by pull down based in-gel fluorescence scanning analysis; settings: time 80.0 min
Staphylococcus aureus [30] = assay: Binding affinity to moaB in methicillin resistant Staphylococcus aureus ATCC 43300 assessed as protein labeling at 5 uM incubated for 1 hr in presence of (E)-6-(2-fluorostyryl)-2,4-dihydroxy-3-(3-methylbut-2-enyl)benzoic acid followed by UV irradiation for 20 mins by pull down based in-gel fluorescence scanning analysis; settings: time 80.0 min
Staphylococcus aureus [31] = assay: Binding affinity to YidC in methicillin resistant Staphylococcus aureus ATCC 43300 assessed as protein labeling at 5 uM incubated for 1 hr in presence of (E)-6-(2-fluorostyryl)-2,4-dihydroxy-3-(3-methylbut-2-enyl)benzoic acid followed by UV irradiation for 20 mins by pull down based in-gel fluorescence scanning analysis; settings: time 80.0 min
Staphylococcus aureus [32] = assay: Binding affinity to PgsA in methicillin resistant Staphylococcus aureus ATCC 43300 assessed as protein labeling at 5 uM incubated for 1 hr in presence of (E)-6-(2-fluorostyryl)-2,4-dihydroxy-3-(3-methylbut-2-enyl)benzoic acid followed by UV irradiation for 20 mins by pull down based in-gel fluorescence scanning analysis; settings: time 80.0 min
Staphylococcus aureus [33] = assay: Antibacterial activity against methicillin resistant Staphylococcus aureus ATCC 43300 persisters assessed as reduction in colony formation at 40 ug/ml incubated for 8 hrs in presence of 50 ug/ml Ca2+ by colony counting method; assay type: functional, organism-based; settings: dose 40.0 µg/ml
Staphylococcus aureus [34] = assay: Antibacterial activity against methicillin resistant Staphylococcus aureus ATCC 43300 persisters assessed as reduction in colony formation at 40 ug/ml incubated for 8 hrs by colony counting method; assay type: functional, organism-based; settings: dose 40.0 µg/ml
Staphylococcus aureus [35] = assay: Resistance index, ratio of MIC for antibacterial activity against Staphylococcus aureus ATCC 25923 measured after 60 days of serial passage to MIC for antibacterial activity against Staphylococcus aureus ATCC25923 measured after 16 hrs; assay type: functional
Staphylococcus aureus [36] = assay: Antibacterial activity against methicillin resistant Staphylococcus aureus ATCC 43300 persisters assessed as reduction in colony formation at 4 ug/ml incubated for 8 hrs by colony counting method; assay type: functional, organism-based; settings: dose 4.0 µg/ml
Staphylococcus aureus [37] = assay: Bacteriostatic activity against Staphylococcus aureus ATCC 25923 assessed as reduction in bacterial growth at 128 ug/ml incubated for 16 hrs by Kirby-Bauer test method; assay type: functional, organism-based; settings: dose 128.0 µg/ml

COc1cc(/C=C/c2ccc(C(F)(F)F)cc2)c(C(=O)O)c(O)c1CC=C(C)C
IC50 (RAW264.7): 50.6 µM | Activity (Staphylococcus aureus [1]): Active

C#CCCC1(CCOc2ccc(/C=C/c3cc(OC)c(CC=C(C)C)c(O)c3C(=O)O)c(F)c2)N=N1
Activity (Staphylococcus aureus [2]): Active | MIC (Staphylococcus aureus [3]): 8 µg/mL (≈ 16.2 µM) | Activity (Staphylococcus aureus [4]): inactive | Activity (Staphylococcus aureus [5]): Active | Activity (Staphylococcus aureus [6]): Active | Activity (Staphylococcus aureus [7]): Active | Activity (Staphylococcus aureus [8]): Active | Activity (Staphylococcus aureus [9]): Active | Activity (Staphylococcus aureus [10]): Active | Activity (Staphylococcus aureus [11]): Active | Activity (Staphylococcus aureus [12]): Active | Activity (Staphylococcus aureus [13]): Active | Activity (Staphylococcus aureus [14]): Active | Activity (Staphylococcus aureus [15]): Active | Activity (Staphylococcus aureus [16]): Active | Activity (Staphylococcus aureus [17]): Active | Activity (Staphylococcus aureus [18]): Active | Activity (Staphylococcus aureus [19]): inactive | Activity (Staphylococcus aureus [20]): inactive | Activity (Staphylococcus aureus [21]): inactive | Activity (Staphylococcus aureus [22]): inactive | Activity (Staphylococcus aureus [23]): inactive | Activity (Staphylococcus aureus [24]): inactive | Activity (Staphylococcus aureus [25]): inactive | Activity (Staphylococcus aureus [26]): inactive | Activity (Staphylococcus aureus [27]): inactive | Activity (Staphylococcus aureus [28]): inactive | Activity (Staphylococcus aureus [29]): inactive | Activity (Staphylococcus aureus [30]): inactive | Activity (Staphylococcus aureus [31]): inactive | Activity (Staphylococcus aureus [32]): inactive

CCCCCCCCCC(=O)N[C@@H](Cc1c[nH]c2ccccc12)C(=O)N[C@H](CC(N)=O)C(=O)N[C@@H](CC(=O)O)C(=O)N[C@@H]1C(=O)NCC(=O)N[C@@H](CCCN)C(=O)N[C@@H](CC(=O)O)C(=O)N[C@H](C)C(=O)N[C@@H](CC(=O)O)C(=O)NCC(=O)N[C@H](CO)C(=O)N[C@@H]([C@H](C)CC(=O)O)C(=O)N[C@@H](CC(=O)c2ccccc2N)C(=O)O[C@@H]1C
Activity (Staphylococcus aureus [33]): Active

O=C(O)c1cn(C2CC2)c2cc(N3CCNCC3)c(F)cc2c1=O [CIPROFLOXACIN]
Activity (Staphylococcus aureus [34]): Active | Ratio (Staphylococcus aureus [35]): 50

CO[C@H]1/C=C/O[C@@]2(C)Oc3c(C)c(O)c4c(O)c(c(/C=N/N5CCN(C)CC5)c(O)c4c3C2=O)NC(=O)/C(C)=C\C=C\[C@H](C)[C@H](O)[C@@H](C)[C@@H](O)[C@@H](C)[C@H](OC(C)=O)[C@@H]1C
Activity (Staphylococcus aureus [36]): Active

C#CCCC1(CCOc2ccccc2)N=N1
Activity (Staphylococcus aureus [37]): inactive | Activity (Staphylococcus aureus [5]): inactive | Activity (Staphylococcus aureus [6]): inactive | Activity (Staphylococcus aureus [7]): inactive | Activity (Staphylococcus aureus [8]): inactive | Activity (Staphylococcus aureus [9]): inactive | Activity (Staphylococcus aureus [10]): inactive | Activity (Staphylococcus aureus [11]): inactive | Activity (Staphylococcus aureus [12]): inactive | Activity (Staphylococcus aureus [13]): inactive | Activity (Staphylococcus aureus [14]): inactive | Activity (Staphylococcus aureus [15]): inactive | Activity (Staphylococcus aureus [16]): inactive | Activity (Staphylococcus aureus [17]): inactive | Activity (Staphylococcus aureus [18]): inactive
